Patent US20250025454A1 (priority 2021, published 2025)
≈ marks a conversion by molar mass, not a printed value. Where two headings read alike, the source gives them in different places.

Key:
SARS-CoV-2/WA1 = assay type: cell-based
[1] = cited from earlier work
SARS-CoV-2 = conditions: Scripps ReFrame database; cited from earlier work
[2] = male, Sprague-Dawley, rat, in vivo

SMILES: Cc1c(-c2ccc(O)cc2)n(Cc2ccc(OCCN3CCCCC3)cc2)c2ccc(O)cc12 [Pipendoxifene, 2-(4-hydroxyphenyl)-3-methyl-1-[[4-(2-piperidin-1-ylethoxy)phenyl]methyl]indol-5-ol]
- IC50 expressed as mass concentration (SARS-CoV-2/WA1): 328 ng/mL (≈ 0.718 µM)
- mean t1/2 ([1]; 150 mg dose): 15.8 h
- mean t1/2 ([1]; 200 mg dose): 26 h
- Clearance ([1]; in vivo): 4 to 10.5 h⁻¹ kg⁻¹
- time to steady-state plasma levels ([1]; in vivo): 4 to 5 days
- activity in HTS (SARS-CoV-2): INACTIVE
- increase of plasma AUClast [2]: about 2 fold
- AUClast ([2]; po, 250 mg/kg): 3515 ng·h/mL
- Tmax ([2]; po, 250 mg/kg): 5.33 h
- Tmax ([2]; po, 500 mg/kg): 6.67 h
- Tmax ([2]; po, 750 mg/kg): 6.67 h
